# Test results published in US8114880B2, “Piperidine or piperazine substituted tetrahydro-naphthalene-1-carboxylic acid MTP inhibiting compounds” (Janssen Pharmaceutica N.V., priority 2006, dated 2012).
# What was measured:
# HepG2 cells = assay: Quantification of the secretion of ApoB; format: cell-based; details: Homo sapiens, HepG2, 24 h, 24 hours of incubation, pIC50 = -log IC50
# Method in brief: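 At 70% confluency, HepG2 cells received compound (0.4% DMSO final) for 24 h. Secreted apoB in cleared medium was immunoprecipitated with sheep anti-apoB then rabbit anti-sheep antibody (24 h each at 8° C.), and pellet radioactivity was counted by scintillation. IC50 values were expressed as pIC50.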
# MTP = MTP (Homo sapiens, UniProt P55157); assay: MTP assay (triglyceride transfer from donor to acceptor vesicles); format: biochemical; details: MTP activity, percent triglyceride transfer from donor to acceptor vesicles, 37° C.
# Method in brief: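 Radiolabelled triglyceride transfer from donor vesicles (phosphatidylcholine, 7.5 mol % cardiolipin, 0.25 mol % glycerol tri[1-^14C]-oleate) to phosphatidylcholine acceptor vesicles with BSA, pH 7.5 Tris buffer; compounds in DMSO (0.13% final), 5 min preincubation at 37° C before MTP addition. Donor vesicles removed on DEAE-52; acceptor-supernatant ^14C counts give percent transfer.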
# Chain of MTP (P55157 19-894, species assumed): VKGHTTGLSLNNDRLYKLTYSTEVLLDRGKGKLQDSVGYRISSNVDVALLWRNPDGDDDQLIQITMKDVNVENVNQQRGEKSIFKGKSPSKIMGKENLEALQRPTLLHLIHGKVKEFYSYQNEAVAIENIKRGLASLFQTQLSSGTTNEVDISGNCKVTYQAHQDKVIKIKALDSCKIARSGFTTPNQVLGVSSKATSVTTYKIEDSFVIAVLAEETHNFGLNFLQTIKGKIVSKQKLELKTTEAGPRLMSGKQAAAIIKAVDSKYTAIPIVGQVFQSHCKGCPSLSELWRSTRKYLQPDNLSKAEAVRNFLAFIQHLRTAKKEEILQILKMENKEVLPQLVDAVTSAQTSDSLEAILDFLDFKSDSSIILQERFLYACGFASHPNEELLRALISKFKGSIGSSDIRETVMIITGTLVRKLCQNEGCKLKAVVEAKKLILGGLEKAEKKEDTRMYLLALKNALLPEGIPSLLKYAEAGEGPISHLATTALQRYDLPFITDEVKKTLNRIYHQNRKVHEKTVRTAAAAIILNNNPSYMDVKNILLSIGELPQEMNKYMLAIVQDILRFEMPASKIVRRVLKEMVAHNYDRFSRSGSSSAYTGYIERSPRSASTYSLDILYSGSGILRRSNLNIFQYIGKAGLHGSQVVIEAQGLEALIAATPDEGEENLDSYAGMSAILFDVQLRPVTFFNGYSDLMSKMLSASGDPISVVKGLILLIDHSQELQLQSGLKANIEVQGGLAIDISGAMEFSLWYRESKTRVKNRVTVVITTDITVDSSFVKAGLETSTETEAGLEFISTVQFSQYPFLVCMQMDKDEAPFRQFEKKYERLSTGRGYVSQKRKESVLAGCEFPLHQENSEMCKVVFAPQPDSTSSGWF
# Chain of MTP (P07237 18-508 partner, species assumed): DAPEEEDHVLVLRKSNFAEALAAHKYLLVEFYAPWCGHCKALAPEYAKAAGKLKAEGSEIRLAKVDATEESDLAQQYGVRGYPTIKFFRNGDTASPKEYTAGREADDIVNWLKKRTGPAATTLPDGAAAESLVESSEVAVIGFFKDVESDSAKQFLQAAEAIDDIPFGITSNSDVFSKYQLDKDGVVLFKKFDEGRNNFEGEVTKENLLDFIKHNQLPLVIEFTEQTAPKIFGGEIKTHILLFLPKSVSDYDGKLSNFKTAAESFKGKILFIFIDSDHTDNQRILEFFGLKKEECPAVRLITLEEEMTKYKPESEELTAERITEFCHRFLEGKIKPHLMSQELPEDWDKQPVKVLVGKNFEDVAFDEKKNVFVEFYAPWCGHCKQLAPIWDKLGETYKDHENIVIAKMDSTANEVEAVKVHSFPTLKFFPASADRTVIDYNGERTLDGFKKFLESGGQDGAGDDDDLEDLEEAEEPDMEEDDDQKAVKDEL
IC50 (HepG2 cells),IC50 (MTP),SMILES
74.8 nM,9.18 nM,COc1ccccc1C(=O)NC1CCN(C(=O)[C@H]2CC[C@@](C(=O)N[C@@H](CCC(=O)OC(C)(C)C)C(=O)OC(C)(C)C)(c3ccccc3)c3ccccc32)CC1 [Co. No. 108]
2.77 nM,2.43 nM,COc1ccccc1C(=O)NC1CCN(C(=O)[C@H]2CC[C@@](C(=O)N[C@@H](CCCCNC(=O)OC(C)(C)C)C(=O)OC(C)(C)C)(c3ccccc3)c3ccccc32)CC1 [Co. No. 109]
245 nM,> 100 nM,COc1ccccc1C(=O)NC1CCN(C(=O)[C@H]2CC[C@@](C(=O)N3CCC[C@H]3C(=O)OC(C)(C)C)(c3ccccc3)c3ccccc32)CC1 [Co. No. 110]
136 nM,18 nM,COc1ccccc1C(=O)NC1CCN(C(=O)[C@H]2CC[C@@](C(=O)N[C@@H](Cc3ccccc3)C(=O)OC(C)(C)C)(c3ccccc3)c3ccccc32)CC1 [Co. No. 112]
> 1000 nM,> 10000 nM,COc1ccccc1C(=O)NC1CCN(C(=O)[C@H]2CC[C@@](C(=O)N[C@@H](CC(=O)O)C(=O)O)(c3ccccc3)c3ccccc32)CC1 [Co. No. 121]
4.36 nM,1.77 nM,CCOC(=O)CCNC(=O)[C@@]1(c2ccccc2)CC[C@H](C(=O)N2CCC(NC(=O)c3ccccc3OC)CC2)c2ccccc21 [Co. No. 129]
> 1000 nM,596 nM,COC(=O)CCNC(=O)[C@@]1(c2ccccc2)CC[C@H](C(=O)N2CCC(NC(=O)c3cccn(C)c3=O)CC2)c2ccccc21 [Co. No. 138]
> 1000 nM,131 nM,COC(=O)[C@H](CCCCNC(=O)OC(C)(C)C)NC(=O)[C@@]1(c2ccccc2)CC[C@H](C(=O)N2CCC(NC(=O)c3cccn(C)c3=O)CC2)c2ccccc21 [Co. No. 148]
> 1000 nM,129 nM,CCOC(=O)CCNC(=O)[C@@]1(c2ccccc2)CC[C@H](C(=O)N2CCC(NC(=O)c3cccn(C)c3=O)CC2)c2ccccc21 [Co. No. 159]
> 1000 nM,65.2 nM,Cn1cccc(C(=O)NC2CCN(C(=O)[C@H]3CC[C@@](C(=O)NCCC(=O)OC(C)(C)C)(c4ccccc4)c4ccccc43)CC2)c1=O [Co. No. 164]
> 1000 nM,33.6 nM,Cn1cccc(C(=O)NC2CCN(C(=O)[C@H]3CC[C@@](C(=O)N[C@@H](CCCCNC(=O)OC(C)(C)C)C(=O)OC(C)(C)C)(c4ccccc4)c4ccccc43)CC2)c1=O [Co. No. 172]
7.36 nM,1.32 nM,COc1ccccc1C(=O)NC1CCN(C(=O)[C@H]2CC[C@@](C(=O)NCCC(=O)OC(C)C)(c3ccccc3)c3ccccc32)CC1 [Co. No. 199]
255 nM,6.79 nM,CCOC(=O)CC(C)NC(=O)[C@@]1(c2ccccc2)CC[C@H](C(=O)N2CCC(NC(=O)c3ccccc3OC)CC2)c2ccccc21 (some centres unmarked) [Co. No. 200]
> 1000 nM,7.76 nM,COC(=O)CCCNC(=O)[C@@]1(c2ccccc2)CC[C@H](C(=O)N2CCC(NC(=O)c3ccccc3OC)CC2)c2ccccc21 [Co. No. 201]
793 nM,3.16 nM,CCOC(=O)CCCNC(=O)[C@@]1(c2ccccc2)CC[C@H](C(=O)N2CCC(NC(=O)c3ccccc3OC)CC2)c2ccccc21 [Co. No. 202]
30 nM,2.05 nM,COc1ccccc1C(=O)NC1CCN(C(=O)[C@H]2CC[C@@](C(=O)NCCCC(=O)OC(C)(C)C)(c3ccccc3)c3ccccc32)CC1 [Co. No. 203]
> 1000 nM,58.7 nM,COC(=O)CCCCNC(=O)[C@@]1(c2ccccc2)CC[C@H](C(=O)N2CCC(NC(=O)c3ccccc3OC)CC2)c2ccccc21 [Co. No. 204]

IC50 (HepG2 cells),IC50 (MTP),SMILES
75.5 nM,5.45 nM,CCOC(=O)CCCCNC(=O)[C@@]1(c2ccccc2)CC[C@H](C(=O)N2CCC(NC(=O)c3ccccc3OC)CC2)c2ccccc21 [Co. No. 205]
42.4 nM,2.96 nM,COc1ccccc1C(=O)NC1CCN(C(=O)[C@H]2CC[C@@](C(=O)NCCCCC(=O)OC(C)C)(c3ccccc3)c3ccccc32)CC1 [Co. No. 206]
> 1000 nM,2.59 nM,COC(=O)CCCCCNC(=O)[C@@]1(c2ccccc2)CC[C@H](C(=O)N2CCC(NC(=O)c3ccccc3OC)CC2)c2ccccc21 [Co. No. 207]
57.7 nM,1.86 nM,COc1ccccc1C(=O)NC1CCN(C(=O)[C@H]2CC[C@@](C(=O)NCCCCCC(=O)OC(C)C)(c3ccccc3)c3ccccc32)CC1 [Co. No. 208]
> 1000 nM,36.2 nM,COc1ccccc1C(=O)NC1CCN(C(=O)[C@H]2CC[C@@](C(=O)NCCCCCC(=O)OC(C)(C)C)(c3ccccc3)c3ccccc32)CC1 [Co. No. 209]
8.67 nM,2.95 nM,CCOC(=O)[C@H](CCCCNC(=O)OC(C)(C)C)NC(=O)[C@@]1(c2ccccc2)CC[C@H](C(=O)N2CCC(NC(=O)c3ccccc3OC)CC2)c2ccccc21 [Co. No. 210]
95.7 nM,6.1 nM,CCOC(=O)NCCCC[C@H](NC(=O)[C@@]1(c2ccccc2)CC[C@H](C(=O)N2CCC(NC(=O)c3ccccc3OC)CC2)c2ccccc21)C(=O)OCC [Co. No. 211]
22.3 nM,4.34 nM,CCOC(=O)NCCCC[C@H](NC(=O)[C@@]1(c2ccccc2)CC[C@H](C(=O)N2CCC(NC(=O)c3ccccc3OC)CC2)c2ccccc21)C(=O)OC(C)C [Co. No. 212]
5.9 nM,3.1 nM,COc1ccccc1C(=O)NC1CCN(C(=O)[C@H]2CC[C@@](C(=O)N[C@@H](CCCCNC(=O)OC(C)C)C(=O)OC(C)C)(c3ccccc3)c3ccccc32)CC1 [Co. No. 213]
> 1000 nM,26.8 nM,COC(=O)[C@H](CCCCNC(=O)[C@@]1(c2ccccc2)CC[C@H](C(=O)N2CCC(NC(=O)c3ccccc3OC)CC2)c2ccccc21)NC(C)=O [Co. No. 214]
18.4 nM,2.92 nM,COC(=O)[C@@H](CCCCNC(=O)OC(C)(C)C)NC(=O)[C@@]1(c2ccccc2)CC[C@H](C(=O)N2CCC(NC(=O)c3ccccc3OC)CC2)c2ccccc21 [Co. No. 215]
31.1 nM,6.7 nM,CCOC(=O)[C@@H](CCCCNC(=O)OC(C)(C)C)NC(=O)[C@@]1(c2ccccc2)CC[C@H](C(=O)N2CCC(NC(=O)c3ccccc3OC)CC2)c2ccccc21 [Co. No. 216]
256 nM,8.22 nM,CCOC(=O)NCCCC[C@@H](NC(=O)[C@@]1(c2ccccc2)CC[C@H](C(=O)N2CCC(NC(=O)c3ccccc3OC)CC2)c2ccccc21)C(=O)OCC [Co. No. 217]
65 nM,2.41 nM,CCOC(=O)NCCCC[C@@H](NC(=O)[C@@]1(c2ccccc2)CC[C@H](C(=O)N2CCC(NC(=O)c3ccccc3OC)CC2)c2ccccc21)C(=O)OC(C)C [Co. No. 218]
300 nM,4.24 nM,COC(=O)[C@@H](CCCCNC(=O)OC(C)C)NC(=O)[C@@]1(c2ccccc2)CC[C@H](C(=O)N2CCC(NC(=O)c3ccccc3OC)CC2)c2ccccc21 [Co. No. 219]
21.1 nM,1.86 nM,CCOC(=O)[C@@H](CCCCNC(=O)OC(C)C)NC(=O)[C@@]1(c2ccccc2)CC[C@H](C(=O)N2CCC(NC(=O)c3ccccc3OC)CC2)c2ccccc21 [Co. No. 220]
135 nM,1.78 nM,COc1ccccc1C(=O)NC1CCN(C(=O)[C@H]2CC[C@@](C(=O)N[C@H](CCCCNC(=O)OC(C)C)C(=O)OC(C)C)(c3ccccc3)c3ccccc32)CC1 [Co. No. 221]
